pIC50: −log10 of the molar value.
What follows are compounds tested against T1, Avi-KRAS G12D (1-169) GppNHp/RAF1 RBD-3xFLAG (52-151) (Homo sapiens, UniProt P01116, G12D) (assay: Raf1-KRAS G12D-GppNHP disruption HTRF assay (Biological Example 1)). Conditions: KRAS G12D, GppNHp-loaded; Table 11.
T1 construct: Avi-KRAS G12D (1-169)
Assay type: binding
Outline: (§1)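 Percent activity versus DMSO (100%) was derived from HTRF signal after KRAS–RAF1 RBD protein mix was incubated 1 h at room temperature with shaking and detection reagents were added for a further 1 h.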

T1 sequence (P01116 1-169 isoform P01116-2 G12D): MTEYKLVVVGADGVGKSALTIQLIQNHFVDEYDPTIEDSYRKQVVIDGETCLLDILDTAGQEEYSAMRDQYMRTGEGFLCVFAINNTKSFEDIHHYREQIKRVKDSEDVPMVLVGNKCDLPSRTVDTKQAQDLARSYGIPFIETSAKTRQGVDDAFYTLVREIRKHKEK

| SMILES | pIC50 |
| --- | --- |
| CC(=O)N(C)CCN(C)c1nc(OC[C@@]23CCCN2C[C@H](F)C3)nc2c(F)c(-c3ccc(F)c4sc(N)c(C#N)c34)c(C(F)(F)F)cc12 [Compound 255] | 6.00 to 7.00 |
| CN(C)C(=O)c1cc2n(n1)CCCN(c1nc(OC[C@@]34CCCN3C[C@H](F)C4)nc3c(F)c(-c4ccc(F)c5sc(N)c(C#N)c45)c(C(F)(F)F)cc13)C2 [Compound 256] | > 7.00 |
| CN1CCN(c2nc(OC[C@@]34CCCN3C[C@H](F)C4)nc3c(F)c(-c4ccc(F)c5sc(N)c(C#N)c45)c(C(F)(F)F)cc23)CC1=O [Compound 257] | 6.00 to 7.00 |
| N#Cc1c(N)sc2c(F)ccc(-c3c(C(F)(F)F)cc4c(N5C[C@@H]6C[C@H]5CO6)nc(OC[C@@]56CCCN5C[C@H](F)C6)nc4c3F)c12 [Compound 259] | 6.00 to 7.00 |
| CC(C)C(=O)N1CC[C@@H](N(C)c2nc(OC[C@@]34CCCN3C[C@H](F)C4)nc3c(F)c(-c4ccc(F)c5sc(N)c(C#N)c45)c(C(F)(F)F)cc23)[C@H]1C [Compound 261] | 6.00 to 7.00 |
| N#Cc1c(N)sc2c(F)ccc(-c3c(C(F)(F)F)cc4c(N5CCCS(=O)(=O)CC5)nc(OC[C@@]56CCCN5C[C@H](F)C6)nc4c3F)c12 [Compound 263] | > 7.00 |

What follows are compounds tested on SW620 cells (KRAS G12V) (assay: Cell-based pERK HTRF assay in SW620 cell (Biological Example 4)). Conditions: Homo sapiens, SW-620, SW620 (KRAS G12V) cells, pERK HTRF.
Outline: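 In SW620 cells grown in RPMI with 10% FBS, a 4 h compound treatment (0.25% DMSO, 9-point curve from 1 μM) preceded lysis. Phospho-ERK levels were then read by time-resolved FRET at 615 nm emission.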

| SMILES | pIC50 |
| --- | --- |
| CC(=O)N(C)CCN(C)c1nc(OC[C@@]23CCCN2C[C@H](F)C3)nc2c(F)c(-c3ccc(F)c4sc(N)c(C#N)c34)c(C(F)(F)F)cc12 [Compound 255] | > 7.00 |
| CN(C)C(=O)c1cc2n(n1)CCCN(c1nc(OC[C@@]34CCCN3C[C@H](F)C4)nc3c(F)c(-c4ccc(F)c5sc(N)c(C#N)c45)c(C(F)(F)F)cc13)C2 [Compound 256] | > 7.00 |
| CN1CCN(c2nc(OC[C@@]34CCCN3C[C@H](F)C4)nc3c(F)c(-c4ccc(F)c5sc(N)c(C#N)c45)c(C(F)(F)F)cc23)CC1=O [Compound 257] | > 7.00 |
| N#Cc1c(N)sc2c(F)ccc(-c3c(C(F)(F)F)cc4c(N5C[C@@H]6C[C@H]5CO6)nc(OC[C@@]56CCCN5C[C@H](F)C6)nc4c3F)c12 [Compound 259] | > 7.00 |
| CC(C)C(=O)N1CC[C@@H](N(C)c2nc(OC[C@@]34CCCN3C[C@H](F)C4)nc3c(F)c(-c4ccc(F)c5sc(N)c(C#N)c45)c(C(F)(F)F)cc23)[C@H]1C [Compound 261] | > 7.00 |
| N#Cc1c(N)sc2c(F)ccc(-c3c(C(F)(F)F)cc4c(N5CCCS(=O)(=O)CC5)nc(OC[C@@]56CCCN5C[C@H](F)C6)nc4c3F)c12 [Compound 263] | > 7.00 |

The compounds below were run against T2, Avi-KRAS WT (1-169) GppNHp/RAF1 RBD-3xFLAG (52-151) (Homo sapiens, UniProt P01116) (assay: Raf1-KRAS WT-GppNHP disruption HTRF assay (Biological Example 1)). Conditions: KRAS WT, GppNHp-loaded; Table 11.
T2 construct: Avi-KRAS WT (1-169)
Assay type: binding
Outline: as §1

T2 sequence (P01116 1-169 isoform P01116-2): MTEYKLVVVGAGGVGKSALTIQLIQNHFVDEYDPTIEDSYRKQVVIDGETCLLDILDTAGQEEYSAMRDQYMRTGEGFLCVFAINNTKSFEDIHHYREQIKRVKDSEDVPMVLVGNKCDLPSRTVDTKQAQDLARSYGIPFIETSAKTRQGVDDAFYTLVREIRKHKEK

| SMILES | pIC50 |
| --- | --- |
| CC(=O)N(C)CCN(C)c1nc(OC[C@@]23CCCN2C[C@H](F)C3)nc2c(F)c(-c3ccc(F)c4sc(N)c(C#N)c34)c(C(F)(F)F)cc12 [Compound 255] | 6.00 to 7.00 |
| CN(C)C(=O)c1cc2n(n1)CCCN(c1nc(OC[C@@]34CCCN3C[C@H](F)C4)nc3c(F)c(-c4ccc(F)c5sc(N)c(C#N)c45)c(C(F)(F)F)cc13)C2 [Compound 256] | 6.00 to 7.00 |
| CN1CCN(c2nc(OC[C@@]34CCCN3C[C@H](F)C4)nc3c(F)c(-c4ccc(F)c5sc(N)c(C#N)c45)c(C(F)(F)F)cc23)CC1=O [Compound 257] | 6.00 to 7.00 |
| N#Cc1c(N)sc2c(F)ccc(-c3c(C(F)(F)F)cc4c(N5C[C@@H]6C[C@H]5CO6)nc(OC[C@@]56CCCN5C[C@H](F)C6)nc4c3F)c12 [Compound 259] | 6.00 to 7.00 |
| CC(C)C(=O)N1CC[C@@H](N(C)c2nc(OC[C@@]34CCCN3C[C@H](F)C4)nc3c(F)c(-c4ccc(F)c5sc(N)c(C#N)c45)c(C(F)(F)F)cc23)[C@H]1C [Compound 261] | > 7.00 |
| N#Cc1c(N)sc2c(F)ccc(-c3c(C(F)(F)F)cc4c(N5CCCS(=O)(=O)CC5)nc(OC[C@@]56CCCN5C[C@H](F)C6)nc4c3F)c12 [Compound 263] | > 7.00 |

These compounds were tested against T3, Avi-KRAS G12V (1-169) GppNHp/RAF1 RBD-3xFLAG (52-151) (Homo sapiens, UniProt P01116, G12V) (assay: Raf1-KRAS G12V-GppNHP disruption HTRF assay (Biological Example 1)). Conditions: KRAS G12V, GppNHp-loaded; Table 11.
T3 construct: Avi-KRAS G12V (1-169)
Assay type: binding
Outline: as §1

T3 sequence (P01116 1-169 isoform P01116-2 G12V): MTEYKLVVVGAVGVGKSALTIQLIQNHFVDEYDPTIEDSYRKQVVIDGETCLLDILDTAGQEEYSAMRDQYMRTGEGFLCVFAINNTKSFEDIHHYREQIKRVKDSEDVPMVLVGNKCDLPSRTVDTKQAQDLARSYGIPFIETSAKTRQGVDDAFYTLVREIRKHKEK

| SMILES | pIC50 |
| --- | --- |
| CC(=O)N(C)CCN(C)c1nc(OC[C@@]23CCCN2C[C@H](F)C3)nc2c(F)c(-c3ccc(F)c4sc(N)c(C#N)c34)c(C(F)(F)F)cc12 [Compound 255] | 6.00 to 7.00 |
| CN(C)C(=O)c1cc2n(n1)CCCN(c1nc(OC[C@@]34CCCN3C[C@H](F)C4)nc3c(F)c(-c4ccc(F)c5sc(N)c(C#N)c45)c(C(F)(F)F)cc13)C2 [Compound 256] | 6.00 to 7.00 |
| CN1CCN(c2nc(OC[C@@]34CCCN3C[C@H](F)C4)nc3c(F)c(-c4ccc(F)c5sc(N)c(C#N)c45)c(C(F)(F)F)cc23)CC1=O [Compound 257] | 5.00 to 6.00 |
| N#Cc1c(N)sc2c(F)ccc(-c3c(C(F)(F)F)cc4c(N5C[C@@H]6C[C@H]5CO6)nc(OC[C@@]56CCCN5C[C@H](F)C6)nc4c3F)c12 [Compound 259] | 5.00 to 6.00 |
| CC(C)C(=O)N1CC[C@@H](N(C)c2nc(OC[C@@]34CCCN3C[C@H](F)C4)nc3c(F)c(-c4ccc(F)c5sc(N)c(C#N)c45)c(C(F)(F)F)cc23)[C@H]1C [Compound 261] | 6.00 to 7.00 |
| N#Cc1c(N)sc2c(F)ccc(-c3c(C(F)(F)F)cc4c(N5CCCS(=O)(=O)CC5)nc(OC[C@@]56CCCN5C[C@H](F)C6)nc4c3F)c12 [Compound 263] | 6.00 to 7.00 |

These compounds were tested against T4, Avi-KRAS G12R (1-169) GppNHp/RAF1 RBD-3xFLAG (52-151) (Homo sapiens, UniProt P01116, G12R) (assay: Raf1-KRAS G12R-GppNHP disruption HTRF assay (Biological Example 1)). Conditions: KRAS G12R, GppNHp-loaded; Table 11.
T4 construct: Avi-KRAS G12R (1-169)
Assay type: binding
Outline: as §1

T4 sequence (P01116 1-169 isoform P01116-2 G12R): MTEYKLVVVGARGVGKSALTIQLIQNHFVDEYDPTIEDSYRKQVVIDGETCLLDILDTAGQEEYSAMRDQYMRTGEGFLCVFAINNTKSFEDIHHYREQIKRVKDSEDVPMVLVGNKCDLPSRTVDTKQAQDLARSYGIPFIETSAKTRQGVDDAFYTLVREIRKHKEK

| SMILES | pIC50 |
| --- | --- |
| CC(=O)N(C)CCN(C)c1nc(OC[C@@]23CCCN2C[C@H](F)C3)nc2c(F)c(-c3ccc(F)c4sc(N)c(C#N)c34)c(C(F)(F)F)cc12 [Compound 255] | 6.00 to 7.00 |
| CN(C)C(=O)c1cc2n(n1)CCCN(c1nc(OC[C@@]34CCCN3C[C@H](F)C4)nc3c(F)c(-c4ccc(F)c5sc(N)c(C#N)c45)c(C(F)(F)F)cc13)C2 [Compound 256] | 6.00 to 7.00 |
| CN1CCN(c2nc(OC[C@@]34CCCN3C[C@H](F)C4)nc3c(F)c(-c4ccc(F)c5sc(N)c(C#N)c45)c(C(F)(F)F)cc23)CC1=O [Compound 257] | 5.00 to 6.00 |
| N#Cc1c(N)sc2c(F)ccc(-c3c(C(F)(F)F)cc4c(N5C[C@@H]6C[C@H]5CO6)nc(OC[C@@]56CCCN5C[C@H](F)C6)nc4c3F)c12 [Compound 259] | 6.00 to 7.00 |
| CC(C)C(=O)N1CC[C@@H](N(C)c2nc(OC[C@@]34CCCN3C[C@H](F)C4)nc3c(F)c(-c4ccc(F)c5sc(N)c(C#N)c45)c(C(F)(F)F)cc23)[C@H]1C [Compound 261] | 6.00 to 7.00 |
| N#Cc1c(N)sc2c(F)ccc(-c3c(C(F)(F)F)cc4c(N5CCCS(=O)(=O)CC5)nc(OC[C@@]56CCCN5C[C@H](F)C6)nc4c3F)c12 [Compound 263] | > 7.00 |

Each compound was assayed on GP2d cells (KRAS G12D) (assay: Cell-based pERK HTRF assay in GP2d cell (Biological Example 2)). Conditions: GP2d, GP2d (KRAS G12D) cells, pERK HTRF.
Outline: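 GP2d (KRAS G12D) cells were plated in DMEM/10% FBS and treated the next day for 60 min with compounds. Dosing used 9-point half-log series starting at 1 μM or 100 nM in 0.25% DMSO. Lysates were read by HTRF pERK (d2/Eu cryptate antibodies) after 4–24 h at room temperature, with excitation at 320 nm and emission at 615 nm.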

| SMILES | pIC50 |
| --- | --- |
| CC(=O)N(C)CCN(C)c1nc(OC[C@@]23CCCN2C[C@H](F)C3)nc2c(F)c(-c3ccc(F)c4sc(N)c(C#N)c34)c(C(F)(F)F)cc12 [Compound 255] | > 7.00 |
| CN(C)C(=O)c1cc2n(n1)CCCN(c1nc(OC[C@@]34CCCN3C[C@H](F)C4)nc3c(F)c(-c4ccc(F)c5sc(N)c(C#N)c45)c(C(F)(F)F)cc13)C2 [Compound 256] | > 7.00 |
| CN1CCN(c2nc(OC[C@@]34CCCN3C[C@H](F)C4)nc3c(F)c(-c4ccc(F)c5sc(N)c(C#N)c45)c(C(F)(F)F)cc23)CC1=O [Compound 257] | > 7.00 |
| N#Cc1c(N)sc2c(F)ccc(-c3c(C(F)(F)F)cc4c(N5C[C@@H]6C[C@H]5CO6)nc(OC[C@@]56CCCN5C[C@H](F)C6)nc4c3F)c12 [Compound 259] | > 7.00 |
| CC(C)C(=O)N1CC[C@@H](N(C)c2nc(OC[C@@]34CCCN3C[C@H](F)C4)nc3c(F)c(-c4ccc(F)c5sc(N)c(C#N)c45)c(C(F)(F)F)cc23)[C@H]1C [Compound 261] | > 7.00 |
| N#Cc1c(N)sc2c(F)ccc(-c3c(C(F)(F)F)cc4c(N5CCCS(=O)(=O)CC5)nc(OC[C@@]56CCCN5C[C@H](F)C6)nc4c3F)c12 [Compound 263] | > 7.00 |

Source: patent publication US20260042764A1, “COMPOSITIONS AND METHODS FOR INHIBITION OF KRAS” (TheRas, Inc., priority 2022, published 2026)
